SMILES strings stand for the structures. Read-outs that look alike come from different tables or passages of the source.

What all share (type): cell-based
Data set [1] deals with MCF-7 (non-TNBC cell line). Kind of data set: MTT cell viability assay, MCF-7. Conditions: read-out: IC50 ± SD, MCF-7. The protocol: (§1) The following cancer and non-cancer cell lines were used in the initial cytotoxicity screening of the TPH104 compounds: triple negative breast cancer (TNBC): MDA-MB468, MDA-MB 231, and BT-20; non-TNBC: MCF-7 and ZR-75-1; ovarian: Ov2008; prostate: DU145; colon: HCT-116, S1, and LOVO; lung: H460; normal kidney: HEK-293; normal breast: HMEC; and normal colon: CRL-1459. All cells were cultured in Dulbecco's modified Eagle medium (DMEM), supplemented with 10% fetal bovine serum (FBS), and 1% penicillin/streptomycin (P/S). Cells were allowed to grow as adherent monolayers in T25 flasks in a humidified incubator with 5% CO2 at 37° C. for a period of 24 h, unless otherwise specified for certain experiments.
(§2) The MTT assay was used to determine the cytotoxicity of all of the compounds. Briefly, in a 96-well flat-bottom cell culture plate, the cells were seeded at a density between 3-5×10^3 cells/well (180 μl in each well) and incubated for 24 h (a hemocytometer was used for cell counting). The next day, the cells were incubated with different concentrations of the nine compounds (0, 0.1, 0.3, 1, 3, 10, 30, and 100 μM) for 72 h. After 72 h, 20 μl of 5 mg/ml of 3-(4,5-dimethylthiazol-2-yl)-2,5-diphenyltetrazolium bromide (MTT) was added to the plate and incubated with the cells for 3 h at 37° C. In this experiment, the living cells will reduce the soluble MTT dye to non-soluble purple formazan crystals. Following incubation, the media containing MTT removed via suction and 100 μL of 100% dimethyl sulfoxide (DMSO) was added to dissolve the formazan crystals. Subsequently, the plate was shaken for 2 minutes and the absorbance was measured at a wavelength of 570 nm using a SpectraMax iD3 Multi-Mode Microplate Reader (Molecular Devices, Sunnyvale, CA). The IC50 values of each compound were calculated and used to determine the selectivity ratio (IC50 in normal cells/IC50 in cancer cells) of each compound as previously described. Based on the results obtained from these experiments, the compound TPH104, which had the lowest IC50 value, was selected for further experiments.
On the technique in general: Tetrazolium dyes change colour on reduction, which living cells bring about.

The test system of data set [2] is MDA-MB468, BT-20, and MDA-MB231. As to the kind of experiment: Trans-well migration assay. As to conditions: 1 μM or 10 μM, 24 h. On the procedure:
This assay was used to assess the migration and invasiveness of TNBC cells. In this assay, 24 well-plates with 24 well inserts of 8 μm pore size, (Corning, Cambridge, MA, USA), were used. The inserts were pre-coated with growth-factor reduced matrigel (1:40) and added to each well, forming two chambers (upper and lower). Briefly, cells were seeded at a density of 10,000 cells/well in the upper chamber of the inserts. The lower chamber was filled with cell-free DMEM medium supplemented with 10% FBS and 1% P/S. The next day, cells were incubated with 0.1, 1, or 10 μM of TPH104 or vehicle for 24 h to allow the cells to migrate through the porous membrane into the lower chamber. Following incubation, cotton swabs were used to wipe away the non-migrated, stationary cells in the upper chamber. The migrated cells were fixed with 100% methanol and stained with 0.1% crystal violet dye. The migrated cells were then viewed, pictured and counted using an EVOS-FLC microscope as previously reported.

The subject of data set [3] is MDA-MB231 (TNBC cell line). Kind of data set: MTT cell viability assay, MDA-MB231. As to conditions: Homo sapiens, MDA-MB-231, 72 h, read-out: IC50 ± SD, MDA-MB231. The protocol:
as §1, §2

A further data set relates to BT-20 cells. Kind of data set: Acridine orange assay. Conditions: TPH104, 12 h, vs vehicle. On the procedure:
The cell-permeant, nucleic acid binding dye, acridine orange (AO) was used to assess the effect of TPH104 on the activation of lysosomes. A 10 μg/ml stock solution was prepared using PBS. The TNBC cells were seeded in a 6-well plate as described in the cell cycle assay. After overnight incubation, cells were incubated with TPH104 (1, 2, 5 μM), vehicle or 20 uM of chloroquine (CQ, […]) for 12 h. The media was removed via suction and 1 ml of AO, diluted in 1:1000 in PBS, was added to each well and the plate was incubated for an additional 30 minutes. Cells were washed three times in PBS to remove excess dye. The cells from each well were captured from randomly selected fields using a fluorescent microscope (EVOS-FLC cell imaging system, Thermofisher scientific) at 40× to determine the AO fluorescence intensity which is positively correlated to lysosomal activation.

Data set [4] concerns MDA-MB231, MDA-MB468, and BT-20. Kind of data set: Cell colony formation assay. As to conditions: vs vehicle. The protocol:
This assay was used to measure the size and rate of colony formation for TNBC cells, with or without TPH104, as previously reported. Briefly, in a 6-well cell culture plate, cells were seeded at a density of 250,000 cells/well and allowed to grow/attach overnight. The next day, the cells were incubated with different concentration of TPH104 (0.1, 1, or 10 μM) or vehicle and incubated for 12 h at 37° C. Following incubation, the cells were harvested, counted, and reseeded at a density of 500-800 cells/well (1 ml in each well), in a new 6-well plate, with complete medium for 10 days. The medium was changed every 2 days in order to prevent cell starvation. On the 10th day, the colonies were fixed with absolute methanol at room temperature for 30 minutes. Subsequently, cells were stained with 0.1% crystal violet dye (Sigma, USA) for an additional 30 minutes. Finally, the fixed and stained colonies were viewed, pictured (at 4, 10, and 20×) and counted using an EVOS-FLC microscope (Thermo Fisher Scientific, Wayne, MI, USA). The following equation was used to calculate the colony formation rate: Colony formation rate=number of colonies formed/number of seeded cells (500)×100% Trans-Well Migration Assay

Data set [5] concerns the target T1, ABCG2 transporter (S1M180 cells) (Homo sapiens, UniProt Q9UNQ0, R482G).
T1 construct: intracellular accumulation of rhodamine 123 in ABCG2 overexpressing S1M180 cells; endogenous in cells; host or cells: S1M180 colon cancer cells
Kind of data set: Intracellular accumulation of rhodamine 123. As to conditions: 0.05-1 μM. The protocol:
FIG. 26: TPH104 reverses multidrug resistance by blocking the function of ABCG2 transporter. The effect of TPH104 and nilotinib on the intracellular accumulation of rhodamine 123 in ABCG2 overexpressing S1M180 cells. The top image is a graph showing the concentration-dependent increase in the accumulation of rhodamine 123 in S1M180 cells incubated with TPH104. Red filled=control; sky blue filled=0.05 μM; brown filled=0.1 μM; dark blue filled=0.3 μM; lime green filled=1 μM of TPH104, respectively, and olive green=nilotinib, 5 μM. The bottom image is a bar graph representing the relative rhodamine 123 accumulation levels. The data shown as means±SEM of three independent experiments. *p<0.05; ***p<0.001 compared to the control.

T1 sequence (Q9UNQ0 whole entry R482G, one chain of several): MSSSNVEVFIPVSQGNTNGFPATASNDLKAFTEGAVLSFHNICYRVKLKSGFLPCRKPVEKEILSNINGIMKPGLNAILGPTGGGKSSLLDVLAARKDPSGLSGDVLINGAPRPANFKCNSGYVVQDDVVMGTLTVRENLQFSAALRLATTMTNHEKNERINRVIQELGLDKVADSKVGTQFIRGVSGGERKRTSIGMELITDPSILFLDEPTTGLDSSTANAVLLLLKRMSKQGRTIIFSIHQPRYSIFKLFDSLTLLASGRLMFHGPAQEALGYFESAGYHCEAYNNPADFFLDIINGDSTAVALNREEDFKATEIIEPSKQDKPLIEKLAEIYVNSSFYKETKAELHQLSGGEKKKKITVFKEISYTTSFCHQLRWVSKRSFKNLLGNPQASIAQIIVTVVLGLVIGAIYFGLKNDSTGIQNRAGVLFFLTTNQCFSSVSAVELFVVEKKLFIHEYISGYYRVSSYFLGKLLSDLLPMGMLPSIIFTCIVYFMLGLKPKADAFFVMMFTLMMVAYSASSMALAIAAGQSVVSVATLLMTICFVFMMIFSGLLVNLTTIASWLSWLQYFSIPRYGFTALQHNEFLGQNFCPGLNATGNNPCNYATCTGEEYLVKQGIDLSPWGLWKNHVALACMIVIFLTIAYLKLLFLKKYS

For orientation: IC50 means the concentration needed to halve the response being measured. For `COc1ccc(O)c(/C=N/Nc2ncnc3scc(-c4ccc(C)cc4)c23)c1` [TPH104], the 50% inhibitory concentration (IC50) in data set [1] (72 h) came to 3.84 ± 1.36 µM; in data set [1] (Homo sapiens, MCF7, 72 h), 3.8 µM; in data set [3], 0.19 µM. Moreover, in data set [2], the “migration of TNBC cells” value is recorded as “significantly decreased”. Further, the “fluorescence intensity of the acridine orange (AO) dye” value with BT-20 cells is given as “did not show a significant increase”. The colony formation rate entry in data set [4] (0.1, 1, 10 μM for 12 h) is “significantly inhibited”. Besides, the “number and size of the colonies formed” value in data set [4] (1 and 10 μM, all 3 TNBC cell lines) is recorded as “significantly decreased”. For the same compound, the “intracellular accumulation of rhodamine 123” value in data set [5] is listed as “increased”.

The values above are taken from patent US12390467B2, “Necroptosis inducers or autophagy inhibitors or a combination thereof” (The University of Toledo, priority 2018, dated 2025).
